According to PubChem BioAssay AID1963440 (Molecular Pharmacology Branch, DTP, NCI, 2024):

Tested on: NCI-H1417 complex spheroids, growth % test/control
Test: Anticancer human tumor NCI-H1417 cell line growth inhibition [Asc];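 also: spheroids exposed to compounds for 7 days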;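 as to viability, T/C: 100% = DMSO vehicle control wells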
Conditions: for IC50: curve of first compound; for viability, T/C: stronger effect = lower value
Description: Multicellular complex tumor spheroid response to apoptosis pathway targeting inhibitors Alrizomadlin, Pelcitoclax, and Dasminapant in combination with a variety of drugs and investigational agents in selected tumor cell lines
The MDM2 inhibitor alrizomadlin, the Bcl-2/Bcl-xL inhibitor pelcitoclax, and the IAPs inhibitor dasminapant were evaluated both individually and in combination with standard of care and investigational anticancer small molecules within a complex spheroid model of solid tumors. . Complex spheroids include a stromal component modeled by human endothelial cells (HUVEC) and fibroblasts modeled by human mesenchymal stem cells (MSCs). The concentration ranges selected for each drug and investigational agent were based upon clinically achievable concentrations if the clinical Cmax of the agent was known.
Compounds. The drugs and investigational agents: alrizomadlin (APG-115; NSC831270), pelcitoclax (APG-1252; NSC835773), dasminapant (APG-1387;NSC834197), TAK-243 (NSC785004), copanlisib (NSC809693), olaparib (NSC753686), talazoparib (NSC767125), cobimetinib (NSC 768068), eltanexor (KPT-8602, NSC 794443), abemaciclib (NSC 768073), sotorasib (NSC818433), adagrasib (NSC 831453), MRTX-1133 (NSC 836407), Iadademestat (ORY1001, NSC 806812), and RMC-4630 (NSC839698), were obtained from the NCI Developmental Therapeutics Program Chemical Repository. The FDA-approved anticancer drug set is available from the Developmental Therapeutics Program at https://dtp.cancer.gov/organization/dscb/obtaining/available plates.htm. […] The stock solutions were prepared in dimethyl sulfoxide (DMSO, Sigma-Aldrich, St. Louis, MO, cat. D2650) at 800-fold the tested concentration and stored at -70 degrees C prior to their use. All drugs and investigational agents were tested over a range starting from a high concentration at or near the clinical Cmax and decreasing in half-log increments. If the clinical Cmax for an agent had not been determined, the highest concentration tested was 10 microM.
The patient-derived cancer (PDC) cell lines include five colon adenocarcinomas: 186277-243-T-J2-PDC, 616215-338-R-J1-PDC, 439559-082-T-J2-PDC, 463943-066-T-J2-PDC, and 519858-162-T-J1-PDC; three pancreatic carcinomas: 323965-272-R-J2-PDC, 521955-158-R6-J3-PDC, and 521955-158-R2-J5-PDC; two uterine sarcomas: 327498-152-R-J2-PDC and 993429-296-R-J1-PDC; two rhabdomyosarcomas: 755483-174-R-J1-PDC and 772245-204-R-J1-PDC; two soft tissue sarcomas: 126254-015-R-J1-PDC and 494315-158-R-J1-PDC; two malignant fibrous histiocytomas: 317291-083-R-J1-PDC and 596521-263-R-J1-PDC; two breast carcinomas: 171881-019-R-J1-PDC and 885512-296-R-J2-PDC; and one ovarian carcinoma: 6556581-035-R-J-PDC were obtained from the NCI PDMR, (https://pdmr.cancer.gov). The established cell lines HSSY-2 synovial sarcoma (RRID:CVCL 8719), SYO-1 synovial sarcoma (RRID:CVCL_7146), MPNST malignant peripheral neural sheath tumor were obtained from the Sloan Kettering Institute. The following established cell lines were purchased from the American Type Culture Collection (ATCC, Manassas, VA), Sor the received from the NCI repository:, PANC-1 pancreatic carcinoma (CRL-1469, RRID:CVCL_0480), OVCAR-5 ovarian carcinoma (RRID:CVCL_1628), OVCAR-8 ovarian carcinoma (RRID:CVCL_1629), , MCF-7 breast carcinoma (CRL-12584, RRID:CVCL_0031), MDA-MB-231 breast carcinoma (CRL-12532, RRID:CVCL_0062), NCI-H1876 small cell lung carcinoma (CRL-5902, RRID:CVCL_1503), NCI-H510A small cell lung carcinoma (HTB-184, RRID:CVCL_1565), NCI-H1417 (CRL-5869, RRID:CVCL_1469), and NCI-H196 small cell lung carcinoma (CRL-5823, RRID:CVCL_1509). Dr. Peter Houghton (Greehey Children's Cancer Research Institute, University of Texas Health Science Center, San Antonio, TX) provided Rh-18 rhabdomyosarcoma (RRID:CVCL_1659). Pooled donor human umbilical vein endothelial cells (HUVEC, Lonza, cat. CC-2519) and human mesenchymal stem cells (hMSC, Lonza, cat. PT-2501) were purchased from Lonza (Walkersville, MD).
Cell Culture. […]

[1] = second compound 0.03 µM, first compound 0.00949 µM
[2] = second compound 0.03 µM, first compound 0.03 µM
[3] = second compound 0.03 µM, first compound 0.0949 µM
[4] = second compound 0.03 µM, first compound 0.3 µM
[5] = second compound 0.0949 µM, first compound 0.00949 µM
[6] = second compound 0.0949 µM, first compound 0.03 µM
[7] = second compound 0.0949 µM, first compound 0.0949 µM
[8] = second compound 0.0949 µM, first compound 0.3 µM
[9] = second compound 0.3 µM, first compound 0.00949 µM
[10] = second compound 0.3 µM, first compound 0.03 µM
[11] = second compound 0.3 µM, first compound 0.0949 µM
[12] = second compound 0.3 µM, first compound 0.3 µM
[13] = second compound 0.949 µM, first compound 0.00949 µM
[14] = second compound 0.949 µM, first compound 0.03 µM
[15] = second compound 0.949 µM, first compound 0.0949 µM
[16] = second compound 0.949 µM, first compound 0.3 µM
[17] = second compound 3 µM, first compound 0.00949 µM
[18] = second compound 3 µM, first compound 0.03 µM
[19] = second compound 3 µM, first compound 0.0949 µM
[20] = second compound 3 µM, first compound 0.3 µM

## NC(=O)C(=Cn1cnc(-c2cc(C(F)(F)F)cc(C(F)(F)F)c2)n1)c1cncnc1 + CCN1C(C(=O)NC23CCC(C(=O)O)(CC2)CC3)C(c2cccc(Cl)c2F)C2(C(=O)Nc3cc(Cl)ccc32)C12CCCCC2
Second compound 0.03 µM
  IC50: 128 nM
Second compound 0.0949 µM
  IC50: 104 nM
Second compound 0.3 µM
  IC50: 100 nM
Second compound 0.949 µM
  IC50: 102 nM
Second compound 3 µM
  IC50: 59.1 nM
Second compound 0.03 µM, first compound 0.000949 µM
  viability, T/C: 95.9%
Second compound 0.03 µM, first compound 0.003 µM
  viability, T/C: 112%
[1]
  viability, T/C: 93.5%
[2]
  viability, T/C: 96%
[3]
  viability, T/C: 59.7%
[4]
  viability, T/C: 21.9%
Second compound 0.0949 µM, first compound 0.000949 µM
  viability, T/C: 96.7%
Second compound 0.0949 µM, first compound 0.003 µM
  viability, T/C: 101%
[5]
  viability, T/C: 97.2%
[6]
  viability, T/C: 87%
[7]
  viability, T/C: 52.9%
[8]
  viability, T/C: 18.9%
Second compound 0.3 µM, first compound 0.000949 µM
  viability, T/C: 97.7%
Second compound 0.3 µM, first compound 0.003 µM
  viability, T/C: 97%
[9]
  viability, T/C: 96.2%
[10]
  viability, T/C: 87.3%
[11]
  viability, T/C: 51.6%
[12]
  viability, T/C: 19.1%
Second compound 0.949 µM, first compound 0.000949 µM
  viability, T/C: 93.6%
Second compound 0.949 µM, first compound 0.003 µM
  viability, T/C: 96.3%
[13]
  viability, T/C: 85.1%
[14]
  viability, T/C: 73.9%
[15]
  viability, T/C: 52.6%
[16]
  viability, T/C: 18.8%
Second compound 3 µM, first compound 0.000949 µM
  viability, T/C: 97.5%
Second compound 3 µM, first compound 0.003 µM
  viability, T/C: 98.8%
[17]
  viability, T/C: 81.3%
[18]
  viability, T/C: 67.9%
[19]
  viability, T/C: 38.1%
[20]
  viability, T/C: 16.3%

## Cc1nc(N2CCC3(CC2)COC(C)C3N)c(CO)nc1Sc1ccnc(N)c1Cl (stereo not given) + CCN1C(C(=O)NC23CCC(C(=O)O)(CC2)CC3)C(c2cccc(Cl)c2F)C2(C(=O)Nc3cc(Cl)ccc32)C12CCCCC2
Second compound 0.03 µM
  IC50: > 3000 nM
Second compound 0.0949 µM
  IC50: > 3000 nM
Second compound 0.3 µM
  IC50: > 3000 nM
Second compound 0.949 µM
  IC50: > 3000 nM
Second compound 3 µM
  IC50: > 3000 nM
[1]
  viability, T/C: 106%
[2]
  viability, T/C: 104%
[3]
  viability, T/C: 92.1%
[4]
  viability, T/C: 86.1%
Second compound 0.03 µM, first compound 0.949 µM
  viability, T/C: 90.4%
Second compound 0.03 µM, first compound 3 µM
  viability, T/C: 82.6%
[5]
  viability, T/C: 92.8%
[6]
  viability, T/C: 89.5%
[7]
  viability, T/C: 91.4%
[8]
  viability, T/C: 82.1%
Second compound 0.0949 µM, first compound 0.949 µM
  viability, T/C: 87.8%
Second compound 0.0949 µM, first compound 3 µM
  viability, T/C: 79.4%
[9]
  viability, T/C: 98.6%
[10]
  viability, T/C: 104%
[11]
  viability, T/C: 106%
[12]
  viability, T/C: 82.7%
Second compound 0.3 µM, first compound 0.949 µM
  viability, T/C: 92.9%
Second compound 0.3 µM, first compound 3 µM
  viability, T/C: 82.5%
[13]
  viability, T/C: 103%
[14]
  viability, T/C: 93.9%
[15]
  viability, T/C: 97.4%
[16]
  viability, T/C: 78.3%
Second compound 0.949 µM, first compound 0.949 µM
  viability, T/C: 73.3%
Second compound 0.949 µM, first compound 3 µM
  viability, T/C: 84.4%
[17]
  viability, T/C: 88.9%
[18]
  viability, T/C: 95%
[19]
  viability, T/C: 96.5%
[20]
  viability, T/C: 99.7%
Second compound 3 µM, first compound 0.949 µM
  viability, T/C: 79.9%
Second compound 3 µM, first compound 3 µM
  viability, T/C: 80.3%
